The source of these data is patent US20130230586A1, “Treatment of Tinnitus and Related Auditory Dysfunctions” (LINK RESEARCH & GRANTS CORPORATION, priority 2010, published 2013).

For series [1] the following is noted: 10 to 40 mg over a 12 week period; 120 fibromyalgia patients; cited from earlier work.
The procedure of series [2]:
In the initial tests as reported in PCT/IB2010/051373 tablets were administered three times daily.
Four selected outcome variables were used in this preliminary analysis: Global improvement (GI), Tinnitus Handicap Inventory (THI) and Tinnitus Impairment Questionnaire (TBF 12) questionnaires and Minimum Masking Levels (MML). The changes on the outcome variables were obtained by subtracting week 12's scores from the screening scores. The presence of a negative result means a decrease on values.
In Table 2 the changes on outcome variables are listed by Global Improvement (GI) classification, as follows: GI 1=much better; 2=better; 3=slightly better; 4=no change; 5=slightly worse; 6=worse; 7=much worse; THI: Tinnitus Handicap Inventory, TBF 12: Tinnitus Impairment Questionnaire; MML: minimal masking levels, measured in dB HL (Hearing Level).
Four different criteria were established to determine whether a subject responded or not to treatment (see Table 3).

Take `CN(C)CCC=C1c2ccccc2C=Cc2ccccc21` [Cyclobenzaprine]: in series [1], the “Quality of sleep and pain score” value is recorded as “significantly improved”; the “Total number of tender points and muscle tightness” value was “reduction”. In addition, the Responders n in series [2] (Criteria 2: Criteria 1 + decrease on THI) was determined as 11. The Tolerability entry in series [2] (common side effects like constipation and dry mouth may be experienced) is “tolerated well by most subjects”. In series [2] (of 15 subjects, FIG. 1), the “Number of subjects Better or Much Better on GI” value turned out to be 8 subjects and the “Number of subjects Slightly Better, Better or Much Better on GI” value is recorded as 11 subjects. Besides, the “Number of subjects with changes on tinnitus pitch” value in series [2] (out of 15 subjects) is 5 subjects. For the same compound, the “Remark in place of MML change (intermittent tinnitus)” value in series [2] (subject 3, MML not possible to measure) is “change on intensity and less episodes”. For the same compound, the “Trial suspension due to side effects” value in series [2] (subject 6) is listed as “Trial suspended because of side effects”. Besides, the “Course of Minimum Masking Levels (MML) during the tests” value in series [2] (subjects 4, 8, 9, 10 and 11, FIGS. 2-6) is on record as “progressive reduction”. Besides, in series [2] (tested subjects), the “Effect on tinnitus severity and tinnitus loudness” value is “positive effect”; the Safety of administration entry is “safe to administer”.
